Patent publication US20120029066A1, “USE OF FLAVONES FOR TREATING PSYCHIATRIC DISORDERS WITH SENSORIMOTOR GATING DEFICITS” (Taipei Medical University, priority 2010, published 2012)

Key:
[1] = tested on: Male ICR mice; assay: Methamphetamine-induced hyperlocomotion, locomotor activity test; type: in vivo; conditions: 10 mg/Kg i.p. after methamphetamine 2 mg/kg; test after 15 minutes; FIG. 1
Description: Male ICR mice (25-35 g) were used in this study. They were bred, housed and maintained in the animal facility center with temperature- and humidity-controlled and 12:12 light dark cycle in National Taiwan University Medical College (NTUM) (Taiwan, R.O.C.). All animal experiments were carried out in accordance with the guidelines established by the Institutional Animal Care and Utilization Committee of the respective university.
Methamphetamine (MeAmPh, 2 mg/kg) was injected into mice to induce hyperlocomotion in the mice as a typical model for behavioral experiments.
After 15 minutes, the treated mice were then subjected to locomotor activity test.
Data herein are expressed as the mean±S.E.M and the n number indicates the number of the mice used. Statistical comparisons between the data in control and treatment conditions were analyzed by Student's t test. An effect was considered statistically significant if the p value was less than 0.05.

[2] = tested on: mice; assay: Prepulse inhibition (PPI) of acoustic startle response, test compounds i.p.; conditions: for rescue of PPI disruption induced by methamphetamine: MeAmPh 2 mg/kg i.p., 71 dB-prepulse protocol, FIG. 7; for effect of psychotomimetic alone on pre-pulse inhibition of the startle response: control experiment, KET 30 mg/Kg i.p. or MeAmph 2 mg/Kg i.p.
[3] = tested on: mice; assay: PPI of startle response after bilateral intra-cerebella microinjection of test compounds; type: in vivo; conditions: for reinstating ketamine induced PPI disruption: FIG. 4, FIG. 5
Description: In view of the finding in FIGS. 2 and 3, test compounds (e.g., hispidulin or Ro-154513) were microinjected into cerebella (e.g., i.cb microinjection) of the test animals to confirm the action site of hispidulin, by observing whether the MeAmph, KET, or MK-801-induced PPI disruption may be rescued.
Briefly, the mice were anaesthetized with pentobarbital (100 mg/kg i.p.) and placed in a stereotaxic frame. After shaving the hair, the skull surface was exposed by an incision. The head position of the mice was adjusted so that the bregma-lambda axis was horizontal. Then, two 24 gauge stainless-steel cannulae were implanted bilaterally into the lateral cerebellum (−6.4 mm caudal, ±1.5 mm lateral, −1.0 mm ventral from Bregma), according to stereotaxic coordinates (Paxions, 2001). Three stainless steel screws and dental cement were used to fix the cannulae on the top of the skull. The animal was allowed to fully recover after surgery for at least one week before the behavioral experiments were conducted.
On the day of experiment, test compounds were injected through the embedded cannula at 0.5 μl on each side of the cerebellum for 30 s and waited for 1 min to allow the injected compounds to diffuse into the cerebellum. PPI test were conducted as described in Example 2. After experiments, methylene blue was microinjected (0.5 μl/side) and animals were sacrificed and cerebellar slices were dissected to confirm the microinjection site. The data was discarded in the mice with incorrect microinjection sites.

[4] = 10 nmol i.cb., KET 30 mg/Kg i.p.
[5] = 71 or 77 dB prepulse, 115 dB pulse

COc1ccc(-c2cc(=O)c3c(O)cc(O)cc3o2)cc1 [acacetin]
decreasing MeAmph-induced hyperlocomotor activity [1]: active | rescue of PPI disruption induced by methamphetamine ([2]; 10 mg/Kg i.p.): significantly rescued

COc1c(O)cc2oc(-c3ccc(O)cc3)cc(=O)c2c1O [hispidulin]
reinstating ketamine induced PPI disruption [3, 4]: effective in reinstating | reinstating MK-801 induced PPI disruption ([3]; 10 nmol i.cb., MK-801 0.3 mg/Kg i.p., FIG. 4): effective in reinstating | reinstating methamphetamine induced PPI disruption ([3]; 10 nmol i.cb., methamphetamine 2 mg/Kg i.p., FIG. 4): effective in reinstating | decreasing MeAmph-induced hyperlocomotor activity [1]: active | rescue of KET impaired PPI inhibition ([2]; 10 mg/Kg i.p., 15-minute before KET 30 mg/Kg i.p., 71 or 77 dB prepulse, 115 dB pulse, FIG. 2): rescued | rescue of MeAmph impaired PPI inhibition ([2]; 50 mg/Kg i.p., 15-minute before MeAmph 2 mg/Kg i.p., 71 or 77 dB prepulse, FIG. 3): rescued

CN[C@@H](C)Cc1ccccc1 [MeAmph, methamphetamine, reference compound]
effect of psychotomimetic alone on pre-pulse inhibition of the startle response [2, 5]: inhibited the pre-pulse inhibition

CNC1(c2ccccc2Cl)CCCCC1=O (centres unmarked) [KET, ketamine, reference compound]
effect of psychotomimetic alone on pre-pulse inhibition of the startle response [2, 5]: inhibited the pre-pulse inhibition

CCOC(=O)c1ncn2c1CN(C)C(=O)c1cc(N=[N+]=[N-])ccc1-2 [Ro 154513, reference compound]
reinstating ketamine induced PPI disruption [3, 4]: reinstated

O=c1cc(-c2ccc(O)c(O)c2)oc2cc(O)cc(O)c12 [luteolin]
rescue of PPI disruption induced by methamphetamine ([2]; 10 mg/Kg i.p.): significantly rescued

NS(=O)(=O)c1cc(C(=O)O)c(NCc2ccco2)cc1Cl [furosemide, reference compound]
effect on the reinstated ketamine induced PPI disruption ([3]; furosemide 50 nmol i.cb., reinstatement by Ro-154513 or hispidulin 10 nmol i.cb., KET 30 mg/Kg i.p., FIG. 6): antagonized | effect on the reinstated methamphetamine induced PPI disruption ([3]; furosemide 50 nmol i.cb., reinstatement by Ro-154513 or hispidulin 10 nmol i.cb., MeAmPh 2 mg/Kg i.p., FIG. 6): antagonized
